The text below walks through data of article PMC10491836, “Structural dynamics influences the antibacterial activity of a cell-penetrating peptide (KFF)3K” (Scientific Reports, 2023).

Converted amounts (≈) assume the structure as drawn. Like-named read-outs stand apart in the source and are kept apart here. Positions of bridges follow the written chain, without caps; N, C: chain ends. Non-standard residues stand in square brackets, D forms with d. Residues, ends and D or L forms follow the SMILES beside them. No end group written: not given here. S5 = C=CCCC[C@](C)(N)C(=O)O

A word on the MIC: it is the lowest concentration that inhibits growth of the organism. By MBC is commonly meant the lowest tested concentration that kills the bacteria rather than only halting them. A high value points to less potent killing.

Series [1] concerns Ps. aeruginosa ATCC 27853. Type of series: cell-based. On the procedure: (§1) The minimal inhibitory concentration (MIC) values were determined as follows. Bacteria were first cultured overnight in 2 mL of Lysogeny Broth (LB, VWR Chemicals) at 37 °C with shaking. Second, 20 µL of overnight culture was transferred into 2 mL of MHB medium and further cultured at 37 °C with shaking until the culture reached OD600 of 0.3. Third, the culture was diluted 1:100 in a fresh MHB medium and aliquots of 50 µL were mixed with 50 µL of the previously prepared dilutions of the tested compound in MHB on a transparent flat-bottom 96-well plate (Nest). The plate was then sealed with transparent foil (Titer-Tops) and incubated for 20 h, at 37 °C with shaking. Following incubation, OD at 600 nm was measured using the Tecan Sunrise plate reader. Growth inhibition was determined by comparing the given sample with untreated culture (Growth Control—GC) with MHB alone (Sterility Control—SC) as an additional reference. The experiment was performed in at least two biological replicates of two technical replicates each. Statistical significance was determined by a Two-way ANOVA test using GraphPad Prism 9.

Series [2] deals with E. coli 1841-06. Type of series: cell-based. How it is done: as §1
In series [3] the test system is S. aureus ATCC 29213. The series is classed as cell-based. On the procedure:
as §1

Series [4] relates to S. aureus ATCC BAA1720 MRSA. Type of series: cell-based. The note with it: MHB, 20 h, 37 °C, OD600; methicillin-resistant strain; tested up to 32 µM. On the procedure:
as §1

Series [5] concerns E. coli O157:H7 ST2-8624. The series is classed as cell-based. The note with it: MHB, 20 h, 37 °C, OD600; at least two biological replicates of two technical replicates; tested up to 32 µM. How it is done:
as §1

The subject of series [6] is E. coli K12. The experiment in a line: Antibacterial activity determination, MIC. The series is classed as cell-based. To be noted: MHB, 20 h, 37 °C, OD600; reference non-pathogenic strain; tested up to 32 µM. On the procedure: as §1
Series [7] has as its system Ps. aeruginosa ATCC 27853. Type of series: cell-based. On the procedure: (§2) The minimal bactericidal concentration (MBC) values were determined, by diluting wells from the MIC experiment plate in fresh MHB medium. Dilutions of 10, 100, and 1000 times were prepared for the MIC well and up to two higher than MIC concentrations of the tested compound. Dilutions were made on a transparent flat-bottom 96-well plate (Nest) that was next sealed and incubated for 24 h, at 37 °C with shaking. Growth in a given sample well was compared with GC and SC controls.
The source holds these as a separate data set.

For series [8], the system named is E. coli K12. The series is classed as cell-based. On the procedure: as §2
The subject of series [9] is E. coli 1841-06. The series is classed as cell-based. On the procedure:
as §2
The source holds these as a separate data set.

For series [10], the system named is S. aureus ATCC 29213. Type of series: cell-based. How it is done:
as §2
This is another data set of the same source.

The subject of series [11] is S. aureus ATCC BAA1720 MRSA. The series is classed as cell-based. On the procedure: as §2
Series [12] concerns E. coli O157:H7 ST2-8624. Type of series: cell-based. The note with it: wells of MIC plate diluted 10, 100, 1000 times in MHB, 24 h, 37 °C. On the procedure: as §2
In series [13] the test system is Gram-positive and Gram-negative strains. The note with it: both Gram-positive and Gram-negative strains; cited from earlier work. An excerpt: Furthermore, a single-point mutation of a peptide sequence can change its solely cell-penetrating ability into antimicrobial activity, or vice versa. It was shown that the incorporation of hydrophobic or cationic residues changed the character of a CPP into a more antibacterial one.

For series [14], the system named is various Gram-positive and Gram-negative strains. Nature of the series: MIC over the panel of strains (summary statements). Type of series: cell-based. On the procedure: as §1
Series [15] has as its target T1, α-chymotrypsin from bovine pancreas (Bos taurus, UniProt P00766).
T1 construct: α-chymotrypsin from bovine pancreas; from tissue; host or cells: bovine pancreas
Nature of the series: in vitro. The series is classed as in vitro ADME. The note with it: pH 8. On the procedure:
(§3) The proteolytic stability of peptides was analyzed against α-chymotrypsin from bovine pancreas (3.4.21.1, ≥ 40 units/mg protein). Peptide solutions (340 µL) in ammonium bicarbonate buffer (0.1 M NH4HCO3, pH 8.0) were incubated with the appropriate amount of chymotrypsin at 37 °C with rapid shaking (600 rpm). Chymotrypsin and peptides were mixed in the 1:1333 ratio[47],[71]. Digestion mixture (60 µL) was taken at 4, 8, 12, 16, and 20 min and treated with 3 µL of 50% acetonitrile containing 1% TFA to stop the reaction and immediately store in ice. Peptide degradation was analyzed with RP-HPLC using the analytical method from 15 to 75% of acetonitrile in 30 min. Before the injection, the sample was diluted by adding 57 µL of ammonium bicarbonate buffer. 100 µL of the solution taken in each period was injected. The stabilities were quantified as the percentage of the peptide peak of area degradation. The total area of each peak was determined for experiments without chymotrypsin. Each experiment was performed twice on different days.

A further series concerns T2, α-chymotrypsin.
T2 construct: α-chymotrypsin from bovine pancreas; from tissue; host or cells: bovine pancreas
The experiment in a line: in vitro. The note with it: isolated enzyme chymotrypsin, pH 8. The series is classed as in vitro ADME, bovine. On the procedure: as §3

Setting [16] is: MHB, 20 h, 37 °C, OD600, tested up to 32 µM.
[17] abbreviates: wells of MIC plate diluted 10, 100, 1000 times in MHB, 24 h, 37 °C.

Turning to `C[C@@]1(C(=O)N[C@@H](CCCCN)C(=O)N[C@@H](Cc2ccccc2)C(=O)N[C@@H](Cc2ccccc2)C(=O)N[C@@H](CCCCN)C(N)=O)CCCC=CCCC[C@](C)(NC(=O)[C@@H](N)CCCCN)C(=O)N[C@@H](Cc2ccccc2)C(=O)N[C@@H](CCCCN)C(=O)N[C@@H](Cc2ccccc2)C(=O)N1` [(KFF)3K[2–6]] (H-K[S5]FKF[S5]KFFK-NH2; staple 2-6), the MIC in [1] (ATCC 27853, 20 h) was 4 to 8 µM; against E. coli 1841-06 [2] (1841-06, 20 h), 4 µM (≈ 5.48 µg/mL); against S. aureus ATCC 29213 [3] (ATCC 29213, 20 h) it was 16 µM (≈ 21.9 µg/mL); in series [4], 8 µM (≈ 11 µg/mL); against E. coli O157:H7 ST2-8624 [5], 4 µM (≈ 5.48 µg/mL); against E. coli K12 [6], 2 µM (≈ 2.74 µg/mL). The MBC was 8 µM (≈ 11 µg/mL) in series [7] (ATCC 27853, 24 h); 2 µM (≈ 2.74 µg/mL) in the series on E. coli K12 [8] (K12, 24 h); 4 µM (≈ 5.48 µg/mL) with E. coli 1841-06 [9] (1841-06, 24 h); 16 to 32 µM with S. aureus ATCC 29213 [10] (ATCC 29213, 24 h); 16 to 32 µM in series [11] (ATCC BAA1720, 24 h); 4 µM (≈ 5.48 µg/mL) in the series on E. coli O157:H7 ST2-8624 [12].

Turning to “KETWWETWWTEWSQPKKKRKV [Pep-1, amphipathic cell-penetrating peptide quoted from the literature]”, in [13], the MIC was 32 to 64 µM.

On to polymyxin B, for which, in series [14] (Gram-positive strains, tested up to 32 µM), the antibacterial activity entry is “not active”. For the same compound, the MIC is 1 µM in series [1] (setting [16]); 1 µM with E. coli 1841-06 [2] (MHB, 20 h, 37 °C, OD600, β-lactam resistant strain, tested up to 32 µM); greater than 32 µM against S. aureus ATCC 29213 [3] (setting [16]); greater than 32 µM in series [4]; 0.5 to 1 µM against E. coli O157:H7 ST2-8624 [5]; 0.125 µM against E. coli K12 [6]. For the same compound, the MBC in series [7] (setting [17]) was 1 µM; in the series on E. coli K12 [8] (setting [17]), 0.125 µM; with E. coli 1841-06 [9] (setting [17]), 1 µM; against S. aureus ATCC 29213 [10] (setting [17]) it was greater than 32 µM; in series [11] (setting [17]) it was greater than 32 µM; against E. coli O157:H7 ST2-8624 [12] it was 0.5 to 1 µM.

As for `C[C@@]1(C(=O)N[C@@H](CCCCN)C(N)=O)CCCC=CCCC[C@](C)(NC(=O)[C@H](CCCCN)NC(=O)[C@H](Cc2ccccc2)NC(=O)[C@H](Cc2ccccc2)NC(=O)[C@@H](N)CCCCN)C(=O)N[C@@H](Cc2ccccc2)C(=O)N[C@@H](CCCCN)C(=O)N[C@@H](Cc2ccccc2)C(=O)N1` [(KFF)3K[5–9]] (H-KFFK[S5]FKF[S5]K-NH2; staple 5-9), the MIC in series [1] (ATCC 27853, 20 h) was 4 µM (≈ 5.48 µg/mL); against E. coli 1841-06 [2] (1841-06, 20 h), 4 µM (≈ 5.48 µg/mL); against S. aureus ATCC 29213 [3] (ATCC 29213, 20 h), 8 to 16 µM; in [4], 16 µM (≈ 21.9 µg/mL); against E. coli O157:H7 ST2-8624 [5] it was 8 µM (≈ 11 µg/mL); in the series with E. coli K12 [6], 2 µM (≈ 2.74 µg/mL). Further, the “peptide remained undigested after incubation in chymotrypsin solution” value in series [15] worked out at 90%. For the same compound, the MBC in [7] (ATCC 27853, 24 h) is given as 4 µM (≈ 5.48 µg/mL); against E. coli K12 [8] (K12, 24 h), 2 µM (≈ 2.74 µg/mL); in the series with E. coli 1841-06 [9] (1841-06, 24 h), 8 µM (≈ 11 µg/mL); in the series with S. aureus ATCC 29213 [10] (ATCC 29213, 24 h) it was 16 µM (≈ 21.9 µg/mL); in series [11] (ATCC BAA1720, 24 h), 32 µM (≈ 43.8 µg/mL); in the series with E. coli O157:H7 ST2-8624 [12] it was 8 µM (≈ 11 µg/mL).

Regarding KFFKFFKFFK-NH2 [(KFF)3K], the MIC was greater than 32 µM in [14] (all Gram-positive and Gram-negative strains tested); 32 µM in series [1] (ATCC 27853, 20 h); greater than 32 µM in the series with E. coli 1841-06 [2] (1841-06, 20 h); greater than 32 µM in the series with S. aureus ATCC 29213 [3] (ATCC 29213, 20 h); greater than 32 µM in series [4]; 32 µM in the series on E. coli O157:H7 ST2-8624 [5]. Moreover, the MIC with E. coli K12 [6] is on record as 32 µM. Moreover, the metabolised at 20 min in the series on α-chymotrypsin came to 70%. Further, the MBC was no less than 32 µM in [7] (ATCC 27853, 24 h); 32 µM with E. coli K12 [8] (K12, 24 h); greater than 32 µM in the series with E. coli 1841-06 [9] (1841-06, 24 h); greater than 32 µM in the series on S. aureus ATCC 29213 [10] (ATCC 29213, 24 h); greater than 32 µM in [11] (ATCC BAA1720, 24 h); no less than 32 µM in the series with E. coli O157:H7 ST2-8624 [12].
